Literature values, collected in patent publication US6531162B1, “Adrenergically-mediated weight loss product” (priority 2002, dated 2003).
Entries after “also recorded” stand apart in the source; their conditions may differ.

Experiments:
COMT enzyme = details: in-vitro
beta-3 receptors [1] = target: T1, beta-3 receptors (Homo sapiens, UniProt P13945); details: in-vitro studies
humans = details: after oral dosing
[2] = single doses as high as 21.6 mg or daily cumulative doses as high as 43.2 mg
[3] = green tea versus equivalent dose (50 mg) of caffeine
beta-3 receptors [4] = target: T1, beta-3 receptors; details: using beta blocking agents

T1 sequence (P13945 whole entry): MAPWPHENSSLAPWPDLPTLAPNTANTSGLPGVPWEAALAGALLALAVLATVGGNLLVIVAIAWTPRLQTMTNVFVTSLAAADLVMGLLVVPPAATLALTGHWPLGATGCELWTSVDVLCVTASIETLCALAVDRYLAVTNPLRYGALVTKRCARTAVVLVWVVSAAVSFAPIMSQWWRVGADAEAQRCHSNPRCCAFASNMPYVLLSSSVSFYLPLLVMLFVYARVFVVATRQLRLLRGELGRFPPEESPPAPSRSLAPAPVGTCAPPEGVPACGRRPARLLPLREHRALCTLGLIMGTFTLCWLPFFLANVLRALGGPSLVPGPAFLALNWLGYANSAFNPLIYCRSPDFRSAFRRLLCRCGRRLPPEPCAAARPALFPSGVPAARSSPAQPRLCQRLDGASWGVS

In the case of `COc1c(O)cc2c(c1O)[C@@H]1O[C@H](CO)[C@@H](O)[C@H](O)[C@H]1OC2=O` [Bergenin], the “effect on lipogenic actions of insulin” value (fat cells) is listed as “oppose the lipogenic (fat building) actions of insulin”, the “direct stimulation of lipolysis / adrenergic activity” value (fat cells; in-vitro, compound alone) is listed as “does not directly stimulate lipolysis; also recorded: no direct adrenergic activity” and the “enhancement of lipolysis induced by norepinephrine” value (fat cells; in-vitro, with norepinephrine) is listed as “markedly enhances lipolysis; also recorded: increase the lipolytic activity of norepinephrine”.
For `O=C(O[C@@H]1Cc2c(O)cc(O)cc2O[C@@H]1c1cc(O)c(O)c(O)c1)c1cc(O)c(O)c(O)c1` [EGCG], the “inhibition of the COMT enzyme” value (COMT enzyme) is given as “inhibit the COMT enzyme”.
For `NCC(O)c1ccc(O)cc1` (stereo not shown) [Octopamine], the “beta-3 agonist activity and selectivity” value (beta-3 receptors [1]) is given as “potent selective beta-3 agonist; also recorded: selective for this receptor”.
In the case of `COC(=O)[C@@H]1[C@H]2C[C@H]3c4[nH]c5ccccc5c4CCN3C[C@@H]2CC[C@@H]1O` [Yohimbine], the lipolysis in humans (humans) is given as “capable of increasing lipolysis”, the “impact on blood pressure or heart rate” value [2] is given as “no significant impact” and the tolerability [2] is given as “well tolerated”.
For `Cn1c(=O)c2c(ncn2C)n(C)c1=O` [caffeine], the “24 hour energy expenditure” value [3] is listed as “no noticeable effect”.
For `CN[C@@H](C)[C@H](O)c1ccccc1` [ephedrine], the “share of ephedrine-induced thermogenesis accounted for by beta-3 agonist activity” value (beta-3 receptors [4]) is given as “at least 40%”.
